For orientation: Ki means the equilibrium dissociation constant of an inhibitor or competing ligand from its target.

In one assay the target is cruzain (Trypanosoma cruzi, UniProt P25779). Put plainly: Inhibition of cruzain (conditions as for cathepsin L). It is filed as biochemical, T. cruzi. Conditions: 50 mM acetate, pH 5.5, 2.5 mM EDTA, 2.5 mM DTT; Km 1 mM; Dixon plot; read-out: cruzain (Ki μM). The method, then:
(§1) Conditions for cathepsin L: 50 mM acetate, pH 5.5, 2.5 mM EDTA, 2.5 mM DTT. substrate: [Z-Phe-Arg-AMC]=[…] (Km=2 mM). The assay at 25^0 was started by the addition of cat L (final concentration approx 1 nM) and the increase in fluorescence at 450 nm with excitation at 380 nm was followed over 2 min. The depression in the rate of substrate hydrolysis following addition of varying concentrations of inhibitors was noted. The assay was linear throughout the range observed. Duplicate runs were measured.
Conditions for cruzain were the same as for cathepsin L with the exception that the Km for the substrate was 1 mM.
(§2) The respective Ki values were estimated by using the Dixon plot as described by Irwin Segel in Enzyme Kinetics: Behavior and analysis of rapid equilibrium and steady-state enzyme systems, 1975, Wiley-lnterscience Publication, John Wiley & Sons, New York.

Another assay has as its target cathepsin B (Homo sapiens, UniProt P07858). Put plainly: Inhibition of cathepsin B, fluorogenic substrate Z-Arg-Arg-AMC. It is filed as biochemical. The note with it: 50 mM phosphate, pH 6.0, 2.5 mM EDTA, 2.5 mM DTT; Dixon plot; read-out: cathepsin B (Ki μM). The method, then: The assay at 250 was started by the addition of cat B (final concentration approx 10 nM) and the increase in fluorescence at 450 nm with excitation at 380 nm was followed over 2 min. The depression in the rate of substrate hydrolysis following addition of varying concentrations of inhibitors was noted. The assay was linear throughout the range observed. Duplicate runs were measured.
as §2

The target of a further assay is cathepsin L (Homo sapiens, UniProt P07711). Description: Inhibition of cathepsin L, fluorogenic substrate Z-Phe-Arg-AMC. The note with it: 50 mM acetate, pH 5.5, 2.5 mM EDTA, 2.5 mM DTT; Dixon plot; read-out: cathepsin L (Ki μM). The assay is classed as biochemical. The method, then:
as §1, §2

For a further assay, the target named is cathepsin S (Homo sapiens, UniProt P25774). Put plainly: Inhibition of cathepsin S, fluorogenic substrate Z-Val-Val-Arg-AMC. The assay is classed as biochemical. Conditions: 50 mM phosphate, pH 6.5, 2.5 mM EDTA, 2.5 mM DTT; Dixon plot. The method, then: The assay at 250 was started by the addition of cat S (final concentration approx […]) and the increase in fluorescence at 450 nm with excitation at 380 nm was followed over 2 min. The depression in the rate of substrate hydrolysis following addition of varying concentrations of inhibitors was noted. The assay was linear throughout the range observed. Duplicate runs were measured.
Sequence of cathepsin S (P25774 115-331, species assumed): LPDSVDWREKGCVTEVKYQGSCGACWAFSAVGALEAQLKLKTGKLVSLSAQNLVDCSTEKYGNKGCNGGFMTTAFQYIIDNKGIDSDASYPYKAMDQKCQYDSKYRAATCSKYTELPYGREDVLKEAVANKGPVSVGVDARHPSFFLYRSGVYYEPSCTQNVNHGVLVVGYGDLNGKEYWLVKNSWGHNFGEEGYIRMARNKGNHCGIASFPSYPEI
as §2

Sequence of cruzain (P25779 123-467): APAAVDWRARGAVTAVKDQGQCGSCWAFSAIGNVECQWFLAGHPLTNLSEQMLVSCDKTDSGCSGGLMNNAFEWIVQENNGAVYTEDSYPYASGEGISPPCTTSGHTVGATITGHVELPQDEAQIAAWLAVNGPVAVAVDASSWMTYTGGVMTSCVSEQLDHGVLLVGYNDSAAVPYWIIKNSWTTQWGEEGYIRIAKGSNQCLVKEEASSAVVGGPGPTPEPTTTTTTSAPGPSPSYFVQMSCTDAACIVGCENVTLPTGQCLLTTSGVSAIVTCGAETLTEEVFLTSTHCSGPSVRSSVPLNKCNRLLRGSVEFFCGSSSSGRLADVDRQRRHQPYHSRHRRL
Sequence of cathepsin L (P07711 114-333, species assumed): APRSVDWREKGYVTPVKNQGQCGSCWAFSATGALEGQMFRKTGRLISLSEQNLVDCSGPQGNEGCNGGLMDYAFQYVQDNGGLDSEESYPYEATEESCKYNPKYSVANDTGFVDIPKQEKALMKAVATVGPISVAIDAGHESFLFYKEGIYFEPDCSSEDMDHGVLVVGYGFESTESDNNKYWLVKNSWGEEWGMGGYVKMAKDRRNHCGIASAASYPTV

Take `CC(C)C[C@H](NC(=O)N1CCOCC1)C(=O)NC(CCc1ccccc1)S(=O)(=O)c1ccccc1` (stereo partly drawn) [Mu--Leu--HphαSO2 Ph, N^2-(4-morpholinylcarbonyl)-N^1-(3-phenyl-1-phenylsulfonylpropyl)-L-leucinamide]: the inhibition constant Ki turned out to be 0.27 µM at cruzain, 16 µM on cathepsin B, 1.3 µM on cathepsin L and 1.6 µM on cathepsin S.

With `O=C(NC(CCc1ccccc1)S(=O)(=O)c1ccccc1)[C@H](Cc1ccccc1)NC(=O)N1CCOCC1` (stereo partly drawn) [Mu--Phe--(DL)HphαSO2 Ph, N^2-(4-morpholinylcarbonyl)-N^1-(3-phenyl-1-phenylsulfonylpropyl)-L-phenylalaninamide], the Ki on cruzain was 15 µM; at cathepsin B, 3000 µM; at cathepsin L it was 13 µM; at cathepsin S, 5 µM.

As to `O=C(NC(CCc1ccccc1)S(=O)(=O)CF)[C@H](Cc1ccccc1)NC(=O)N1CCOCC1` (stereo partly drawn) [Mu--Phe--HphαSO2 CH2 F, N^2-(4-morpholinylcarbonyl)-N^1-(3-phenyl-1-fluoromethylsulfonylpropyl)-L-phenylalaninamide], the Ki was found to be 2 µM on cruzain, 170 µM at cathepsin B, 1.5 µM on cathepsin L and 2.8 µM on cathepsin S.

The values are drawn from US5776718A, “Reversible protease inhibitors” (Arris Pharmaceutical Corporation, priority 1996, dated 1998).
